Measured values from patent publication US20150119363A1, “METHODS OF TREATING BACTERIAL INFECTIONS” (Rampex Pharmaceuticals, Inc., priority 2012, published 2015).

Columns and labels:
[1] = test system: Acinetobacter baumannii AB1057 (OXA-58); test: Checkerboard assay, biapenem potentiation (MPC8); format: cell-based; details: concentration to reduce biapenem MIC 8-fold
Experimental: The potency and spectrum of β-lactamase inhibitors was determined by assessing their antibiotic potentiation activity.
(§1) The potentiation effect is observed by the reduction of the minimum inhibitory concentration of β-lactam antibiotics in the presence of β-lactamase inhibitors (BLIs). […] Methods for Dilution of Antimicrobial Susceptibility Tests for Bacteria That Grow Aerobically—Eighth Edition; Approved Standard. CLSI Document M07-A8, 2009). In this assay, multiple dilutions of two drugs, namely BLI and β-lactam (biapenem), are being tested, alone and in combination, at concentrations equal to, above and below their respective minimal inhibitory concentrations (MICs). BLIs are solubilized in 10% DMSO at 10 mg/mL. Stock solutions are further diluted, according to the needs of a particular assay, in Mueller Hinton Broth (MHB). Stock solution can be stored at −80° C.
(§2) The checkerboard (CB) assay is performed in microtiter plates. Biapenem is diluted in the x axis, each column containing a single concentration of antibiotic. BLIs are diluted in the y axis, each row containing an equal concentration of BLI. The result of these manipulations is that each well of the microtiter plate contains a unique combination of concentrations of the two agents. The assay is performed in MHB with a final bacterial inoculum of 5×10^5 CFU/mL (from an early-log phase culture). Microtiter plates are incubated during 20 h at 35° C. and are read using a microtiter plate reader (Molecular Devices) at 650 nm as well as visual observation using a microtiter plate reading mirror.
Biapenem is a carbapenem β-lactam; only selected β-lactamases confer resistance to this class of antibiotics. Among them are serine carbapemenases that belong to class A and class D. Biapenem potentiation is studied in strains expressing various carbapenemases from these classes using CB assays. […] Cyclic boronic acid derivatives were capable of reducing biapenem MICs up to 1000-fold (Table 3).

EC1007 KPC-3 = test: Dose titration biapenem potentiation assay (MPC1); format: cell-based, Escherichia coli; details: biapenem 1 μg/mL
Outline: (§3)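 Growth of carbapenemase-expressing strains measured with biapenem held at a sub-inhibitory 1 μg/mL; BLI compounds titrated from a top concentration of 40 μg/mL. MPC1 is the inhibitor concentration that restores growth inhibition by biapenem.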

ECL1004 NMC-A = test: Dose titration biapenem potentiation assay (MPC1); format: cell-based, Enterobacter cloacae; details: biapenem 1 μg/mL
Outline: as §3

[2] = test system: strains expressing KPC alone or in combination with additional beta-lactamases; test: Checkerboard assay, Compound 5 with biapenem (summary); format: cell-based; details: highest concentration of Compound 5 10 mg/L
Excerpt: as §1
as §2, with “The assay is performed in MHB with a final bacterial inoculum of 5×10^5 CFU/mL (from an early-log phase culture).” left out

[3] = test system: Klebsiella pneumonia (KPM1097) NDM-1, KPC-2; test: Biapenem MIC at various concentrations of Compound 5; format: cell-based; details: KPM1097 NDM-1, KPC-2
[4] = test system: E. coli EC1061 (NDM-1 CMY-6); test: Aztreonam/Tigemonam MIC at various concentrations of BLI; format: cell-based; details: EC1061
Experimental: MIC values for each bacterial strain were measured for each antimicrobial compound at various concentrations of each BLI. […]

O=C(O)C[C@@H]1CC[C@H](NC(=O)Cc2cccs2)B(O)O1 [Compound 5, 2-((3R,6S)-2-hydroxy-3-(2-(thiophen-2-yl)acetamido)-1,2-oxaborinan-6-yl)acetic acid]
MPC8 [1]: Z (Z = MPC8 of greater than 1 μg/mL.)
BPM MPC1 EC1007 KPC-3 (EC1007 KPC-3): X (X = MPC1 of less than 1 μg/mL.)
BPM MPC1 ECL1004 NMC-A (ECL1004 NMC-A): X (X = MPC1 of less than 1 μg/mL.)
potentiation of biapenem [2]: significantly potentiate biapenem
Biapenem MIC ([3]; Compound 5 0.31 μg/ml): 2 µg/mL
Biapenem MIC ([3]; Compound 5 0.63 μg/ml): 1 µg/mL
Biapenem MIC ([3]; Compound 5 5 μg/ml): 1 µg/mL
Biapenem MIC ([3]; Compound 5 10 μg/ml): 1 µg/mL
Biapenem MIC ([3]; Compound 5 20 μg/ml): 1 µg/mL
Biapenem MIC ([3]; Compound 5 […]): 1 µg/mL
Aztreonam MIC (μg/ml) in the presence of BLI ([4]; Compound 5 0.31 μg/ml): 4 µg/mL
Aztreonam MIC (μg/ml) in the presence of BLI ([4]; Compound 5 0.63 μg/ml): 4 µg/mL
Aztreonam MIC (μg/ml) in the presence of BLI ([4]; Compound 5 5 μg/ml): 0.5 µg/mL
Aztreonam MIC (μg/ml) in the presence of BLI ([4]; Compound 5 10 μg/ml): 0.5 µg/mL
Aztreonam MIC (μg/ml) in the presence of BLI ([4]; Compound 5 20 μg/ml): 0.5 µg/mL
Aztreonam MIC (μg/ml) in the presence of BLI ([4]; Compound 5 […]): 2 µg/mL
